Assay results: ChEMBL document CHEMBL4834430, “Design and Structure-Activity Relationships of Isothiocyanates as Potent and Selective N-Acylethanolamine-Hydrolyzing Acid Amidase Inhibitors” (J Med Chem, 2021)
Calls of active or inactive are those of the source. The rule behind the calls is not given here.

How the values were obtained:
[1] = Half life in human liver microsomes at 1 uM in presence of NADPH by LC-MS/MS analysis; assay type: ADME, Microsome
[2] = Half life in mouse liver microsomes at 1 uM in presence of NADPH by LC-MS/MS analysis; assay type: ADME, Microsome
[3] = Drug concentration in plasma of CD-1 mouse at 2 mg/kg, iv administered as single cassette dose measured after 15 mins; assay type: ADME, organism-based
[4] = Drug concentration in plasma of CD-1 mouse at 8 mg/kg, po administered as single cassette dose measured after 30 mins; assay type: ADME, organism-based
[5] = Drug concentration in plasma of CD-1 mouse at 8 mg/kg, po administered as single cassette dose measured after 60 mins; assay type: ADME, organism-based
[6] = AUC in CD-1 mouse plasma at 2 mg/kg, iv measured up to 8 hrs; assay type: ADME, organism-based; design: route intravenous, dose 2 mg/kg, time <=8
[7] = Clearance in CD-1 mouse plasma at 2 mg/kg, iv measured up to 8 hrs; assay type: ADME, organism-based
[8] = Volume of distribution in CD-1 mouse plasma at 2 mg/kg, iv measured up to 8 hrs; assay type: ADME, organism-based
[9] = Half life in CD-1 mouse plasma at 2 mg/kg, iv measured up to 8 hrs; assay type: ADME, organism-based
[10] = AUC in CD-1 mouse plasma at 8 mg/kg, po measured up to 8 hrs; assay type: ADME, organism-based; design: route oral, dose 8 mg/kg, time <=8
[11] = Clearance in CD-1 mouse plasma at 8 mg/kg, po measured up to 8 hrs; assay type: ADME, organism-based
[12] = Volume of distribution in CD-1 mouse plasma at 8 mg/kg, po measured up to 8 hrs; assay type: ADME, organism-based; conditions: in vivo
[13] = MRT in CD-1 mouse plasma at 8 mg/kg, po measured up to 8 hrs; assay type: ADME, organism-based
[14] = Oral bioavailability in CD-1 mouse plasma at 8 mg/kg measured up to 8 hrs; assay type: ADME, organism-based
[15] = AUC in CD-1 mouse brain at 2 mg/kg, iv measured up to 6 hrs; assay type: ADME, organism-based; design: route intravenous, dose 2 mg/kg, time <=6
[16] = AUC in CD-1 mouse brain at 8 mg/kg, po measured up to 6 hrs; assay type: ADME, organism-based; design: route oral, dose 8 mg/kg, time <=6
[17] = Ratio of drug concentration in brain to plasma in CD-1 mouse at 2 mg/kg, iv; assay type: ADME, organism-based; conditions: read-out: BPR
[18] = biological target: Cannabinoid receptor 1 (Rattus norvegicus) (UniProt P20272); assay: Displacement of [3H]-CP55940 from rat forebrain CB1 receptor at 10 uM
[19] = biological target: Cannabinoid receptor 2 (Homo sapiens) (UniProt P34972); assay: Displacement of [3H]-CP55940 from human CB2 receptor expressed in HEK293 cell membrane at 10 uM; assay type: cell membranes
[20] = biological target: Cannabinoid receptor 2 (Mus musculus) (UniProt P47936); assay: Displacement of [3H]-CP55940 from mouse CB2 receptor expressed in HEK293 cell membrane at 10 uM; assay type: cell membranes
[21] = biological target: Sodium-dependent dopamine transporter (Homo sapiens) (UniProt Q01959); assay: Inhibition of DAT (unknown origin) at 10 uM
[22] = biological target: Sodium-dependent noradrenaline transporter (Homo sapiens) (UniProt P23975); assay: Inhibition of NET (unknown origin) at 10 uM
Cytochrome P450 2D6 = Cytochrome P450 2D6 (Homo sapiens, UniProt P10635); assay: Inhibition of CYP2D6 (unknown origin) at 10 uM; assay type: ADME
Cytochrome P450 2A6 = biological target: T1, Cytochrome P450 2A6 (Homo sapiens, UniProt P11509); assay: Inhibition of CYP2A6 (unknown origin) at 10 uM; assay type: ADME
T1 sequence (P11509 whole entry): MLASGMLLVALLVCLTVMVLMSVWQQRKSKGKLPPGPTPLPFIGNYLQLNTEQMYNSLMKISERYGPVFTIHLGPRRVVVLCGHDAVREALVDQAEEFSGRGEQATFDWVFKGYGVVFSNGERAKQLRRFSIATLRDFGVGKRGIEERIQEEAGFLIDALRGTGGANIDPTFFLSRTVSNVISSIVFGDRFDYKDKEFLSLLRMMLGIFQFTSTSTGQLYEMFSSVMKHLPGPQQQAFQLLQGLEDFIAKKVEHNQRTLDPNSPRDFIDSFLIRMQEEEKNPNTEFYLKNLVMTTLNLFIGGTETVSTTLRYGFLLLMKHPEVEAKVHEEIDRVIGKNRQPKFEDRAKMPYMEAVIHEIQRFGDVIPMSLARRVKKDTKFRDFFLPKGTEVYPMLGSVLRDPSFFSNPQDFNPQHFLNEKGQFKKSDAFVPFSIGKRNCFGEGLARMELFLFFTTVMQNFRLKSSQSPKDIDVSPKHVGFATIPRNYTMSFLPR

Cytochrome P450 2C9 = Cytochrome P450 2C9 (Homo sapiens, UniProt P11712); assay: Inhibition of CYP2C9 (unknown origin) at 10 uM; assay type: ADME
Cytochrome P450 2C19 = Cytochrome P450 2C19 (Homo sapiens, UniProt P33261); assay: Inhibition of CYP2C19 (unknown origin); assay type: ADME
Cytochrome P450 3A4 = Cytochrome P450 3A4 (Homo sapiens, UniProt P08684); assay: Inhibition of CYP3A4 (unknown origin); assay type: ADME
[23] = biological target: Voltage-gated inwardly rectifying potassium channel KCNH2 (Homo sapiens, UniProt Q12809); assay: Inhibition of human ERG
[24] = Mutagenecity in Salmonella typhimurium TA98 in presence of S9 fraction at 5 to 100 uM by Ames test; assay type: toxicity, subcellular; conditions: salmonella enterica subsp. enterica serovar typhimurium, s9, 100 µM; dose 5-100 µM
[25] = Mutagenecity in Salmonella typhimurium TA98 in absence of S9 fraction at 5 to 100 uM by Ames test; assay type: toxicity; conditions: salmonella enterica subsp. enterica serovar typhimurium, s9, 100 µM; dose 5-100 µM
[26] = Mutagenecity in Salmonella typhimurium TA100 in presence of S9 fraction at 5 to 100 uM by Ames test; assay type: toxicity, subcellular; conditions: salmonella enterica subsp. enterica serovar typhimurium, s9, 100 µM; dose 5-100 µM
[27] = Mutagenecity in Salmonella typhimurium TA100 in absence of S9 fraction at 5 to 100 uM by Ames test; assay type: toxicity; conditions: salmonella enterica subsp. enterica serovar typhimurium, s9, 100 µM; dose 5-100 µM
[28] = Mutagenecity in Salmonella typhimurium TA1535 in presence of S9 fraction at 5 to 100 uM by Ames test; assay type: toxicity, subcellular; conditions: salmonella enterica subsp. enterica serovar typhimurium, s9, 100 µM; dose 5-100 µM
[29] = Mutagenecity in Salmonella typhimurium TA1535 in absence of S9 fraction at 5 to 100 uM by Ames test; assay type: toxicity; conditions: salmonella enterica subsp. enterica serovar typhimurium, s9, 100 µM; dose 5-100 µM
[30] = Mutagenecity in Salmonella typhimurium TA1537 in presence of S9 fraction at 5 to 100 uM by Ames test; assay type: toxicity, subcellular; conditions: salmonella enterica subsp. enterica serovar typhimurium, s9, 100 µM; dose 5-100 µM
[31] = Mutagenecity in Salmonella typhimurium TA1537 in absence of S9 fraction at 5 to 100 uM by Ames test; assay type: toxicity; conditions: salmonella enterica subsp. enterica serovar typhimurium, s9, 100 µM; dose 5-100 µM
[32] = Ratio of drug concentration in brain to plasma in CD-1 mouse at 8 mg/kg, po; assay type: ADME, organism-based; conditions: read-out: BPR

Sodium-dependent dopamine transporter (Homo sapiens), sequence (Q01959 whole entry): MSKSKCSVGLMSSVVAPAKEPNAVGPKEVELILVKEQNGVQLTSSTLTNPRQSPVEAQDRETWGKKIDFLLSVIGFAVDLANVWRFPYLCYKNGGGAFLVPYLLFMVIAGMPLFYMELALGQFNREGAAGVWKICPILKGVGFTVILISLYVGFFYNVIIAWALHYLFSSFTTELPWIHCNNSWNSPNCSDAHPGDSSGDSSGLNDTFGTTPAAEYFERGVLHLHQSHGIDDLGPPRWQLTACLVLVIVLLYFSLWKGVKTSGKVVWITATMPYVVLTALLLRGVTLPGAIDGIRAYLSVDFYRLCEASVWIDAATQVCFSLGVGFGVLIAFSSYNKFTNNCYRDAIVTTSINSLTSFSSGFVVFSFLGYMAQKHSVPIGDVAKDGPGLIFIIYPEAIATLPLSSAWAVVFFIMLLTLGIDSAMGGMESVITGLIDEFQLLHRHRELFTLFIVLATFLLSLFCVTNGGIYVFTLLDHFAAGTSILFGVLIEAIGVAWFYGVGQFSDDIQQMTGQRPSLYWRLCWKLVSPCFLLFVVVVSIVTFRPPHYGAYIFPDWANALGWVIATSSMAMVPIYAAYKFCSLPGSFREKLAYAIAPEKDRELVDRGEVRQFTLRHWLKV
Sodium-dependent noradrenaline transporter (Homo sapiens), sequence (P23975 whole entry): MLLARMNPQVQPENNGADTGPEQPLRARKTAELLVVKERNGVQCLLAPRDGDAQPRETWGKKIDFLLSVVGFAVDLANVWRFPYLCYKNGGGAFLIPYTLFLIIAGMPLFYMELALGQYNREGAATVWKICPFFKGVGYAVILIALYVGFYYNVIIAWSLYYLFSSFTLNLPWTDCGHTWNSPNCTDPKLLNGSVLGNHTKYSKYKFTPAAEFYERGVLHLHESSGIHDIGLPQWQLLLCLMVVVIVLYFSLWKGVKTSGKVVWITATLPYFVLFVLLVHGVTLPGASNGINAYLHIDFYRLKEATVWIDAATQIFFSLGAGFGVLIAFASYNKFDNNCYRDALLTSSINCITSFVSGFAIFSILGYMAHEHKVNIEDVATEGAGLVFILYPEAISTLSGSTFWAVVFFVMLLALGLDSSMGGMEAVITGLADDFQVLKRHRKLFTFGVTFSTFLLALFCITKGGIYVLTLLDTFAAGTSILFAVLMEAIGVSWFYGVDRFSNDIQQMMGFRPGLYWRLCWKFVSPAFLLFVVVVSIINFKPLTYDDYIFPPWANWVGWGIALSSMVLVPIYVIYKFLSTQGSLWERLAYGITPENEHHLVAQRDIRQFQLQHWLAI
Cannabinoid receptor 2 (Mus musculus), sequence (P47936 whole entry): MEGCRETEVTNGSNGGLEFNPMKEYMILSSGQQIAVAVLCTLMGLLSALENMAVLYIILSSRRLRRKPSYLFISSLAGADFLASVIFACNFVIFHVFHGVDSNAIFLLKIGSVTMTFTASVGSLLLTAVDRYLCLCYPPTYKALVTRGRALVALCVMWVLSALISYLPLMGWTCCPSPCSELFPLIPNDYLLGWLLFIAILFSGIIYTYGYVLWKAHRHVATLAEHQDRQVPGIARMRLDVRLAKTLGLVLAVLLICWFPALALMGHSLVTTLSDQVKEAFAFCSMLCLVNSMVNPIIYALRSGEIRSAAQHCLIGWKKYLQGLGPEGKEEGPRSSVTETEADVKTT
Voltage-gated inwardly rectifying potassium channel KCNH2, sequence (Q12809 whole entry): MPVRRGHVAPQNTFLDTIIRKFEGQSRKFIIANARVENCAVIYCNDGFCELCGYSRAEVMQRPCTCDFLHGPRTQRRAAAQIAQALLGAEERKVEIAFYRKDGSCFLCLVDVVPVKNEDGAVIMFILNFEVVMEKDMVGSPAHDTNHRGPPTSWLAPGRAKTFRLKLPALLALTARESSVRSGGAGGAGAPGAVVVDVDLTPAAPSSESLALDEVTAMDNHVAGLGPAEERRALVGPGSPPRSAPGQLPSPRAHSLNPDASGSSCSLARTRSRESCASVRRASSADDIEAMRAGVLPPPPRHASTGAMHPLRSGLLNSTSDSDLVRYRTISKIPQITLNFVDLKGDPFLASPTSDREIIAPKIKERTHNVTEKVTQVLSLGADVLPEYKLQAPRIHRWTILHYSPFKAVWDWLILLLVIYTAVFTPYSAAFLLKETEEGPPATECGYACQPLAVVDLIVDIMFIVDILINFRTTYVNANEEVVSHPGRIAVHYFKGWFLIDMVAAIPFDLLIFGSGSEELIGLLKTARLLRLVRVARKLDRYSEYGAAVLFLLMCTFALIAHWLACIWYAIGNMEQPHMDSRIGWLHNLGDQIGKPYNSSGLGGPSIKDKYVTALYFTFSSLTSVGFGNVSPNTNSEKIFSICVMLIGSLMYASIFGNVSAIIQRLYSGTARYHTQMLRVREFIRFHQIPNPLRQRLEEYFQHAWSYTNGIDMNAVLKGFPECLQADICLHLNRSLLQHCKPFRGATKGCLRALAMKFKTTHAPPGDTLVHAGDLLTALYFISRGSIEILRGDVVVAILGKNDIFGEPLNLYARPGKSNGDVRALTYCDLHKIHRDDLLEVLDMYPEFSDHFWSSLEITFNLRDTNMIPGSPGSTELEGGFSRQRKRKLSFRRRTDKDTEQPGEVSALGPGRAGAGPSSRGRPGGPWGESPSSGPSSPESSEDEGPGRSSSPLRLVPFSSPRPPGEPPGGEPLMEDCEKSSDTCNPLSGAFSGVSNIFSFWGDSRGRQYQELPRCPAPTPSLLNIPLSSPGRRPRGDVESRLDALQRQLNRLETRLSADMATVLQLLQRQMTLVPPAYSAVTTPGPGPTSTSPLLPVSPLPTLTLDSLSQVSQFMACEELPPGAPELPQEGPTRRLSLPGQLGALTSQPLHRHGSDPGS
Cytochrome P450 2D6, sequence (P10635 whole entry): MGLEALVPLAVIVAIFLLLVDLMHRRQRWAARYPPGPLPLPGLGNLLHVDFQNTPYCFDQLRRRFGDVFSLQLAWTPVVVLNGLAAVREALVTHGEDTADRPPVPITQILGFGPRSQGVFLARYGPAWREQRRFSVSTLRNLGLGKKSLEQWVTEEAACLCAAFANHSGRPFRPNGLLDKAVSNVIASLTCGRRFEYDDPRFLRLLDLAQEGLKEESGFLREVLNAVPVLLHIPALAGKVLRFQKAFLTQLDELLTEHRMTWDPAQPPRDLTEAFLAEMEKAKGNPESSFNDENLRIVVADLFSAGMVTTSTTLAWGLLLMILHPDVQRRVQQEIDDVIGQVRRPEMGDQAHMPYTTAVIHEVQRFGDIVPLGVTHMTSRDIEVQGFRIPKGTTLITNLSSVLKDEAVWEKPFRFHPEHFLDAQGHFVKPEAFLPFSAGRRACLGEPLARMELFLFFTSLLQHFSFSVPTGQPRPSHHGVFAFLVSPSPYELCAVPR
Cannabinoid receptor 1 (Rattus norvegicus), sequence (P20272 whole entry): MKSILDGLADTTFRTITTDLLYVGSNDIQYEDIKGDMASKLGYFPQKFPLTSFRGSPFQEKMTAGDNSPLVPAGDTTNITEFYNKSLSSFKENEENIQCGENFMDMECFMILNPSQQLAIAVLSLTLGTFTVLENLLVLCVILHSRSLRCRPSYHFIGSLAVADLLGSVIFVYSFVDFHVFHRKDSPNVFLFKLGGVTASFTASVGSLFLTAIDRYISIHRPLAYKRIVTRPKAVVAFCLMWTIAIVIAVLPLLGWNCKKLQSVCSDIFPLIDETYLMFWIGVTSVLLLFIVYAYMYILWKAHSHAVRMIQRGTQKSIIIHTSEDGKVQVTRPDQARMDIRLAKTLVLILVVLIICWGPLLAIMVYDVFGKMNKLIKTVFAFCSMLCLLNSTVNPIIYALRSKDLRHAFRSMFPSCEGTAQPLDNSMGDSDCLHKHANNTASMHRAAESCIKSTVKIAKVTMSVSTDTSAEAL
Cytochrome P450 3A4, sequence (P08684 whole entry): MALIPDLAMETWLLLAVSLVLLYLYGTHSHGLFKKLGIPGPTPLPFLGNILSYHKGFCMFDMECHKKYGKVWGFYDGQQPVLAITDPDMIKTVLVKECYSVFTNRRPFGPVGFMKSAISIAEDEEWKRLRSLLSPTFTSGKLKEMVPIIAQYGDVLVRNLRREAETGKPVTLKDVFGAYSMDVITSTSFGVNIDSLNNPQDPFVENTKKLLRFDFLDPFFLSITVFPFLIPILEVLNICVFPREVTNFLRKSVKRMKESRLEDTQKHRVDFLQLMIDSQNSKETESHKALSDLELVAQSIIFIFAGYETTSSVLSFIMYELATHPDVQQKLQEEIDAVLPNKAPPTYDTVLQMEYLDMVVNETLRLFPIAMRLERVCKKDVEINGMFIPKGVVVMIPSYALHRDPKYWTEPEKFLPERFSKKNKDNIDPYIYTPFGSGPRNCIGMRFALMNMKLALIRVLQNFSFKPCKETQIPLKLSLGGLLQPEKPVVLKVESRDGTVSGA
Cytochrome P450 2C19, sequence (P33261 whole entry): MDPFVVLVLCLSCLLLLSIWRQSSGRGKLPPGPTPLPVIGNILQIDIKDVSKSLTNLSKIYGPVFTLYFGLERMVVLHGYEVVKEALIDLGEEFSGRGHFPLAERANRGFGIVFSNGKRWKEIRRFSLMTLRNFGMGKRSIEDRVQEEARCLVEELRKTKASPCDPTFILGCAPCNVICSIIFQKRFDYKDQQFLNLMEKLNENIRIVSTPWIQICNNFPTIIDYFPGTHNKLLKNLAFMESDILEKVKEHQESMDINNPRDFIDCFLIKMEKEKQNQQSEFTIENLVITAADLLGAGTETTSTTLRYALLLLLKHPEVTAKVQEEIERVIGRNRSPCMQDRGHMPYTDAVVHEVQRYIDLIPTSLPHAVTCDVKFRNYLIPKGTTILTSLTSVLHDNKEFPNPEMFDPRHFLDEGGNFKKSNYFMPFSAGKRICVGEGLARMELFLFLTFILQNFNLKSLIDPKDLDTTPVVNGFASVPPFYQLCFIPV

Compound `COc1ccc(-c2ccc(CO[C@H]3C[C@@H](N=C=S)C3)nc2)cc1F` has a half-life at 1 µM [1] of 16.7 min, a half-life at 1 µM [2] of 28.2 min and a concentration at 0.25 h [3] of 189 ng/mL. For the same compound, the concentration at 0.5 h [4] was 16 ng/mL, the concentration at 1 h [5] was 54 ng/mL and the AUC at 8 h [6] was 78.5 ng·h/mL. For the same compound, the clearance [7] was 412 mL/min/kg, the Vd [8] was 27 L/kg and the half-life [9] was 45.5 min. The AUC at 8 h [10] was 41.3 ng·h/mL, the CL/F [11] was 2760 mL/min/kg and the Vd [12] was 126 L/kg. The MRT [13] was 64.2 min, the bioavailability [14] was 13% and the AUC at 6 h [15] was 298 ng·h/mL. For the same compound, the AUC at 6 h [16] was 10.3 ng·h/mL, the Kp [17] was 3.8 and the inhibition [18] was “inactive”. The inhibition [19] was “inactive”, the inhibition [20] was “inactive” and the inhibition [21] was “inactive”. The inhibition [22] was “inactive”, the “inhibition (INH)” value (Cytochrome P450 2D6) was “Not Active” and the “inhibition (INH)” value (Cytochrome P450 2A6) was “Not Active”. For the same compound, the “inhibition (INH)” value (Cytochrome P450 2C9) was “Not Active”, the IC50 (Cytochrome P450 2C19) was 3.3 µM and the IC50 (Cytochrome P450 3A4) was 2.6 µM. For the same compound, the IC50 [23] was 19 µM, the Activity [24] was “Non-Toxic” and the Activity [25] was “Non-Toxic”. The Activity [26] was “Non-Toxic”, the Activity [27] was “Non-Toxic” and the Activity [28] was “Non-Toxic”. The Activity [29] was “Non-Toxic”, the Activity [30] was “Non-Toxic” and the Activity [31] was “Non-Toxic”. The Kp [32] was 0.25.
